# Literature values, collected in US12121558B2 (priority 2019, dated 2024).
smiles,measurement,setting,value
"O=c1c(O)c(-c2ccc(O)c(O)c2)oc2cc(O)cc(O)c12 [quercetin, Quercetin]",elimination half-life,after oral ingestion of quercetin containing foods or supplements,1 to 2 h
same,bioavailability,"in humans, low and highly variable",0-50%
